The record followed here is PMC4851326, “Pharmacologic Comparison of Clinical Neutral Endopeptidase Inhibitors in a Rat Model of Acute Secretory Diarrhea” (The Journal of Pharmacology and Experimental Therapeutics, 2016).

For assay [1], the target named is T1, NEP (Homo sapiens, UniProt P08473).
T1 construct: purchased R&D Systems (Minneapolis, MN)
As to the kind of experiment: Purified peptidase assay, NEP. Format: biochemical. To be noted: recombinant purified human enzyme; for prodrugs the active form was tested. How it is done: (§1) Purified recombinant human enzymes were purchased from R&D Systems (Minneapolis, MN). […] Each substrate was diluted to 100 μM in the assay buffer recommended for each enzyme by the supplier. […] To these, 5 μl of diluted enzyme was added, followed by 10 μl of the quenched peptide substrate. The plates were incubated at 37°C until at least 10% substrate turnover or 5 μM product had formed. Fluorescence was measured using a Tecan Safire II (Excitation 320 nm/Emission 420 nm). Each plate included a standard curve of reaction product and positive (no enzyme) and negative (dimethyl sulfoxide vehicle) controls. Dose-response data were plotted and inhibition values (IC50) determined by linear regression analysis using GraphPad Prism (GraphPad Software, La Jolla, CA).

Assay [2] concerns the target T2, ACE (Homo sapiens, UniProt P12821).
T2 construct: purchased R&D Systems (Minneapolis, MN)
As to the kind of experiment: Purified peptidase assay, ACE. The following applies: recombinant purified human enzyme; for prodrugs the active form was tested. Format: biochemical. How it is done:
as §1

For assay [3], the target named is T3, ECE-1 (Homo sapiens, UniProt P42892).
T3 construct: purchased R&D Systems (Minneapolis, MN)
T3 sequence (P42892 1-770): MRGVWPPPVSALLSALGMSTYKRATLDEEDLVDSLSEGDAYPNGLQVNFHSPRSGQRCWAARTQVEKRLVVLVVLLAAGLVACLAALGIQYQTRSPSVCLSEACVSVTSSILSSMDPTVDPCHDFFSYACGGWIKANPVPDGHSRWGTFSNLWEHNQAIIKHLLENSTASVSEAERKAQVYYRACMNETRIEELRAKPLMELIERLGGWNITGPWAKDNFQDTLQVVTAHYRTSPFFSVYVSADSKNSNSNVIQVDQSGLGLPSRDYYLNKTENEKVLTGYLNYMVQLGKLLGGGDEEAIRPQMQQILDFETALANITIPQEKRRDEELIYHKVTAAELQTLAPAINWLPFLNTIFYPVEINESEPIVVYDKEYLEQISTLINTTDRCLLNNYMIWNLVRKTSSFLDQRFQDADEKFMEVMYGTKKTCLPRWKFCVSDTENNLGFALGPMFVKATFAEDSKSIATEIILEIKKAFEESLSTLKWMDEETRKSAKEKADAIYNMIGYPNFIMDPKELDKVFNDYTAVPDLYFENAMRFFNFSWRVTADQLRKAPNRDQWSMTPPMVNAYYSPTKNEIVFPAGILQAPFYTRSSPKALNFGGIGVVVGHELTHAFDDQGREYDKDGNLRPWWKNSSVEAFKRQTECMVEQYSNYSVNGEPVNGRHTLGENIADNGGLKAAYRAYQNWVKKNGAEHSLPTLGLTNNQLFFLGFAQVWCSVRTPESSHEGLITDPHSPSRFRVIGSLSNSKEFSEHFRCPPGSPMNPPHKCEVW
The assay is described as follows: biochemical. The following applies: recombinant purified human enzyme; for prodrugs the active form was tested. Here is the method:
as §1

Assay [4] concerns the target T4, IDE (Homo sapiens, UniProt P14735).
T4 construct: purchased R&D Systems (Minneapolis, MN)
T4 sequence (P14735 1-1019): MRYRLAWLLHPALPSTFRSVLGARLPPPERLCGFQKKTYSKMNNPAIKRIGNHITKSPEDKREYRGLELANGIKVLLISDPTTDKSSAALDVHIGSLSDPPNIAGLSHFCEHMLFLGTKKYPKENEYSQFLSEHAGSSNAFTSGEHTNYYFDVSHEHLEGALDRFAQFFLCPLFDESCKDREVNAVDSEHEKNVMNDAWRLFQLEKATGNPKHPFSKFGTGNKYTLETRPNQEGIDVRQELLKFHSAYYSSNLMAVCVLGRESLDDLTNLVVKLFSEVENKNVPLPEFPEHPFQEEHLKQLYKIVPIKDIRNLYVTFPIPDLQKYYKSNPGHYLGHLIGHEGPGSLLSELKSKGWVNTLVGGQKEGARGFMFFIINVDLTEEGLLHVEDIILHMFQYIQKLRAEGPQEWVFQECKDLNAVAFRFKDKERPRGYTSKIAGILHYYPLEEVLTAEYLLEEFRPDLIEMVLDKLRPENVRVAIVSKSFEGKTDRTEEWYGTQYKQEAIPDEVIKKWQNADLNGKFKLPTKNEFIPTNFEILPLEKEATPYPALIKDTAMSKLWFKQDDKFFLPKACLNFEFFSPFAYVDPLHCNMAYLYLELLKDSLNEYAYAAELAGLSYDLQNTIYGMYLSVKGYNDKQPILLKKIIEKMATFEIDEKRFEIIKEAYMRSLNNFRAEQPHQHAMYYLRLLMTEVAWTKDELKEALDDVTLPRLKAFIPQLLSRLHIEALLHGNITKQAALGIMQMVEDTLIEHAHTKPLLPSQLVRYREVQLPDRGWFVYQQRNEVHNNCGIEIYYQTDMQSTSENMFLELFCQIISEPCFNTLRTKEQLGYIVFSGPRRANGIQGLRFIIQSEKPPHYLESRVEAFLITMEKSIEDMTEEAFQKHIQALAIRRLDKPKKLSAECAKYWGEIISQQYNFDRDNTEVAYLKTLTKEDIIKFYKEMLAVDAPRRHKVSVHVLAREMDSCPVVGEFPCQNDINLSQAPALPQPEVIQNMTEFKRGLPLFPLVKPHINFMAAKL
As to the kind of experiment: Purified peptidase assay, IDE. The following applies: recombinant purified human enzyme; for prodrugs the active form was tested. Format: biochemical. How it is done: as §1

For assay [5], the target named is T5, aminopeptidase N (Homo sapiens, UniProt P15144).
T5 construct: purchased R&D Systems (Minneapolis, MN)
T5 sequence (P15144 whole entry): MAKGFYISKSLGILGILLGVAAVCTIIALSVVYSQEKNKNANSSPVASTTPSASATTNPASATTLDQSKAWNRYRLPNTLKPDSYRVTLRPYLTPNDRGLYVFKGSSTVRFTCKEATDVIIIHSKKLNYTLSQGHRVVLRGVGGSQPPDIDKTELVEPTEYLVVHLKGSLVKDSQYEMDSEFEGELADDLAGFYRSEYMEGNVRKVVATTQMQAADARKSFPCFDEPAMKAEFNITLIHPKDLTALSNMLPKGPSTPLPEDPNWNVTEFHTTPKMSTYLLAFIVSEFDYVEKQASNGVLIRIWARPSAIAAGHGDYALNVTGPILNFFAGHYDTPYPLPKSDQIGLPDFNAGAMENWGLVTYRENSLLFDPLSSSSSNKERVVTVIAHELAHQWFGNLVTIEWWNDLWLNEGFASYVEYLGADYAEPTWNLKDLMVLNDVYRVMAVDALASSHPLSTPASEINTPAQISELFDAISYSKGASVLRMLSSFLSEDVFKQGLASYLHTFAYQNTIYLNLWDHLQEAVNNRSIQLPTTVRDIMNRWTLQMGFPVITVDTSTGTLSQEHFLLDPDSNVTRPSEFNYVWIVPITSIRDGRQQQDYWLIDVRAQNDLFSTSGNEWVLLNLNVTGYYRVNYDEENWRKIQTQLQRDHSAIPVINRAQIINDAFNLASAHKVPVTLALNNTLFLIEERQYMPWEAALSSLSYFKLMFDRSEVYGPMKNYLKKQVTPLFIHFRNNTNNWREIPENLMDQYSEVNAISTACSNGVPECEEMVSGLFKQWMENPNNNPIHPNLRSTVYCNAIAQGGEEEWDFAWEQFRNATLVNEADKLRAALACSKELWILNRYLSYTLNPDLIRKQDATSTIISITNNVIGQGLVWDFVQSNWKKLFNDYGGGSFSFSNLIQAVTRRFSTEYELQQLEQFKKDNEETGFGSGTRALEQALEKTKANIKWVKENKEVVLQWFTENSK
As to the kind of experiment: Purified peptidase assay, APN. Format: biochemical. The following applies: recombinant purified human enzyme; for prodrugs the active form was tested. How it is done: as §1

The subject of assay [6] is castor oil–induced diarrhea. The assay is described as follows: Castor oil–induced diarrhea model. The following applies: single oral dose 30 minutes before castor oil, fasted rats, vs vehicle (Fig. 1). Format: in vivo, rat. How it is done:
Experiments were performed with 6-to-7-week-old male Wistar rats obtained from Charles River Laboratories (Wilmington, MA). All animals were housed in Saint Louis University facilities under controlled conditions of temperature, humidity, and a 12-hour light/dark cycle. They were maintained on standard rodent chow with free access to water. Animal care and all procedures were performed in accordance with the National Institutes of Health Guide for the Care and Use of Laboratory Animals and approved by the university’s institutional animal care and use committee.
Animals were weighed and individually housed in metabolic cages containing white paper underneath to collect feces. Test compounds or vehicles were administered by oral gavage (5 ml/kg), and then at indicated times, 10 ml/kg body weight of 100% castor oil was administered by oral gavage to induce diarrhea. Animals had access to food within 5 minutes. Stool weight was recorded starting 15 minutes after castor oil administration and repeated every 15 minutes up to 4 hours. […] After 4 hours, animals were euthanized with CO2, and blood and tissues were collected for analyses.

T1 sequence (P08473 whole entry): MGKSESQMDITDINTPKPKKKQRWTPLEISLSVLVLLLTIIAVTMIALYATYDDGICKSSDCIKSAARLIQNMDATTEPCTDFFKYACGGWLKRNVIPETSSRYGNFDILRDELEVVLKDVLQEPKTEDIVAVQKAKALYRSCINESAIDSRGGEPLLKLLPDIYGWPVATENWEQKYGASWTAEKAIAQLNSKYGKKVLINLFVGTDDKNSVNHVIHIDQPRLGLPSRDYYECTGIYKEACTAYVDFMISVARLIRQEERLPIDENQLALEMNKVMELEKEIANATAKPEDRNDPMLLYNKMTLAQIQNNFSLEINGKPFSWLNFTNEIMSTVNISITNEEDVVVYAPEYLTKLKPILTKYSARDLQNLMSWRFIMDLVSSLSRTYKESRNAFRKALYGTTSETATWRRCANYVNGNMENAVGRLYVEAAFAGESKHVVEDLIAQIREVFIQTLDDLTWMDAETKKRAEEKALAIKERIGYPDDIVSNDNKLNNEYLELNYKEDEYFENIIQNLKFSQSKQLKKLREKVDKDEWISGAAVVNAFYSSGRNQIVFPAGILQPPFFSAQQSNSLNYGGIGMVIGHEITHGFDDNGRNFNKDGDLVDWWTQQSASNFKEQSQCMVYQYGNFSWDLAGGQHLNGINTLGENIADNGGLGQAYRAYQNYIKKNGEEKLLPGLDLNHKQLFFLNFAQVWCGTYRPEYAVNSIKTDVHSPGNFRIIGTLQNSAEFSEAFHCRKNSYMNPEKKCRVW
T2 sequence (P12821 30-1306): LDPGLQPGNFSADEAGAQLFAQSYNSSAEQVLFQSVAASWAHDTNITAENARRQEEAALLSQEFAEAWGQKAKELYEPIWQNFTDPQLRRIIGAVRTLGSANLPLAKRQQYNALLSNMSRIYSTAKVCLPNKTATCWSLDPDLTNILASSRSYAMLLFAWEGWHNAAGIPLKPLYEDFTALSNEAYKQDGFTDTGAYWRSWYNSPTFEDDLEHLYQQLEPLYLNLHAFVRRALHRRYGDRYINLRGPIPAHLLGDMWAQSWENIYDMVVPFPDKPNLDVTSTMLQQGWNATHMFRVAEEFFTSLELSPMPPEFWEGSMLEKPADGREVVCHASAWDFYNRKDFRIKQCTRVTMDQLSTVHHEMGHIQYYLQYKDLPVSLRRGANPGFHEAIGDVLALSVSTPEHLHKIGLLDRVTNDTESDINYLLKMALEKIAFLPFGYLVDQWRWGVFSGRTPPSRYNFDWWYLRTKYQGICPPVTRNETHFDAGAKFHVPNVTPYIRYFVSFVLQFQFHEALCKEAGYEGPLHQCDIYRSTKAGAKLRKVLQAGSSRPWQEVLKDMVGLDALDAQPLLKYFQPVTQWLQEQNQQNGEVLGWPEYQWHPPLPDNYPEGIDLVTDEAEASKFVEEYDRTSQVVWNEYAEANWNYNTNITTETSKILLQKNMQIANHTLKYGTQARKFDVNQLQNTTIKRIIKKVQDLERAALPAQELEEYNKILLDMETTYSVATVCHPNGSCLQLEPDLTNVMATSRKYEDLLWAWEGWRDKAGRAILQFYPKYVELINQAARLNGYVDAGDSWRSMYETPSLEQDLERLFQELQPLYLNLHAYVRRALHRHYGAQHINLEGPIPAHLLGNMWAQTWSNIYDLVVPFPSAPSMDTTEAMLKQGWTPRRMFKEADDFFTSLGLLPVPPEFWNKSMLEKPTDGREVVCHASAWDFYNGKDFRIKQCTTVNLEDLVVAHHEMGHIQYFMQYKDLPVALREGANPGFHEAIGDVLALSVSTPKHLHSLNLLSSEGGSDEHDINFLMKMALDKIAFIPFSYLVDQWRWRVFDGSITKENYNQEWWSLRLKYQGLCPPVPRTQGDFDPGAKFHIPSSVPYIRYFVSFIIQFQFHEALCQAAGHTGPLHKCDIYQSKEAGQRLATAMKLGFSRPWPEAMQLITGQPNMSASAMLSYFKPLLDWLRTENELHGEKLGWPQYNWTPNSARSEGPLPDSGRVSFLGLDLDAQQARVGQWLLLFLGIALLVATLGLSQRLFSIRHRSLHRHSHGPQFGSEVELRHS

On to `Cc1nc2ccc(CCCNC(=O)C3(C[C@@H](C)C(=O)O)CCCC3)cc2s1` [UK-505,749, (R)-2-methyl-3-(1-((3-(2-methylbenzo[d]thiazol-6-yl)propyl)carbamoyl)cyclopentyl)propanoic acid], for which the half-inhibitory concentration (IC50) in assay [1] was 0.004 µM; in assay [2], more than 100 µM; in assay [3], 3.3 µM; in assay [4] it was more than 100 µM; in assay [5] it was more than 100 µM. Further, in assay [6], the “Cumulative stool output over 4 hours” value is given as “significantly reduced”.

As usually defined, the IC50 is the midpoint of a concentration-inhibition curve.
